From patent publication US20150031068A1, “METHODS AND COMPOSITIONS FOR DETECTING IMMUNE SYSTEM ACTIVATION” (Lycera Corporation, priority 2012, published 2015)

Key:
[1] = Plasma metabolite profile after ^13C-glutamine tracer load in mouse model of acute graft-versus-host disease; type: in vivo; details: for circulating total glutamine concentration in plasma, change: grafted host (allo-transplanted) mice compared to control donor and control host mice
Description: To investigate metabolic adaptations that occur in response to allo-activation, host strain animals (female B6D2F1 mice, H-2b/d) were injected with 50-75 million spleen cells from donor strain animals (female B6.SJL mice, H-2b). […] Eight days after injection, transplanted mice along with control non-transplanted animals from the host and donor strains received with U-^13C(6)-glutamine (Sigma#60516, 1.0 g/kg I.P.) or U-^13C(5)-glucose (Sigma#660663, 1.0 g/kg I.P.) or potassium U-^13C(16)-palmitate (Sigma#687871, 1.0 g/kg, gastric gavage). Treatment groups of four mice each were euthanized 60 minutes after the glutamine or glucose tracer loads or 180 minutes after palmitate tracer load by over exposure to carbon dioxide. Terminal blood samples were collected by cardiac puncture, plasma prepared after blood was mixed with heparin and frozen at −80° C. Spleens were removed and processed to isolate T cells as separate fractions derived from either the donor or host strains of mice. Samples were stored on dry ice overnight and then stored at −80° C. until analyzed using GC/MS-based mass isotopomer analysis.

T cells [2] = experiment: ^13C delta in CO2 in spleen T cells after ^13C-palmitate tracer load, acute graft-versus-host disease model; type: in vivo, mouse
Description: To investigate metabolic adaptations that occur in response to allo-activation, host strain animals (female B6D2F1 mice, H-2b/d) were injected with 50-75 million spleen cells from donor strain animals (female B6.SJL mice, H-2b). The miss-match between the strains major histocompatibility antigens (e.g., H-2b/d versus H-2b) causes T cell activation of donor T cells in vivo and results in a mouse model of acute graft versus host disease. Eight days after injection, transplanted mice along with control non-transplanted animals from the host and donor strains received with U-^13C(6)-glutamine (Sigma#60516, 1.0 g/kg I.P.) or U-^13C(5)-glucose (Sigma#660663, 1.0 g/kg I.P.) or potassium U-^13C(16)-palmitate (Sigma#687871, 1.0 g/kg, gastric gavage). Treatment groups of four mice each were euthanized 60 minutes after the glutamine or glucose tracer loads or 180 minutes after palmitate tracer load by over exposure to carbon dioxide. Terminal blood samples were collected by cardiac puncture, plasma prepared after blood was mixed with heparin and frozen at −80° C. Spleens were removed and processed to isolate T cells as separate fractions derived from either the donor or host strains of mice. Samples were stored on dry ice overnight and then stored at −80° C. until analyzed using GC/MS-based mass isotopomer analysis.

T cells [3] = experiment: Molar percent enrichment of [4,5-^13C2]-L-glutamate in spleen T cells after ^13C-palmitate tracer load; type: in vivo, mouse
Text: The molar percent enrichment of [4,5-^13C2]-L-glutamate is the amount of [4,5-^13C2]-L-glutamate in a sample divided by the total amount of all ^13C-labeled glutamate isotopomers in the sample.

| Structure (SMILES) | circulating total glutamine concentration in plasma, change [1] | circulating total glutamine concentration in plasma, change ([1]; listed as glutamine) | share of ^13C-labeled glutamine fraction still uniformly ^13C-labeled ([1]; grafted host animals, plasma, one hour after glutamine tracer load) [%] | ^13C delta in CO2 (T cells [2]; allo-activated donor type T cells versus control naive donor type T cells, FIG. 4B) | ^13C delta in CO2 (T cells [2]; host T cells from allo-transplanted mouse versus host-type T cells from healthy host control, FIG. 5B) | molar percent enrichment of [4,5-^13C2]-L-glutamate (T cells [3]; allo-activated donor T cells versus control naive T cells, FIG. 6) | molar percent enrichment of [4,5-^13C2]-L-glutamate (T cells [3]; host T cells from allo-transplanted mouse versus T cells from healthy host control, FIG. 7) |
| --- | --- | --- | --- | --- | --- | --- | --- |
| NC(=O)CCC(N)C(=O)O [[U-^13C5]-L-glutamine] | more than two-fold drop | reduction | 83.4 | – | – | – | – |
| [13CH3][13CH2][13CH2][13CH2][13CH2][13CH2][13CH2][13CH2][13CH2][13CH2][13CH2][13CH2][13CH2][13CH2][13CH2][13C](=O)[O-].[K+] [uniformly labeled ^13C-palmitate, potassium U-^13C(16)-palmitate] | – | – | – | higher | no statistically significant difference | over six times greater | no statistically significant difference |
